Test results taken from US7695725B2, “Modified free-living microbes, vaccine compositions and methods of use thereof” (Aduro Biotech, priority 2003, dated 2010).

System: Listeria monocytogenes
Test: Bacterial titer / log attenuation of Listeria after compound 1 treatment
Type: cell-based
Conditions: e.g. at 1 μM
Experimental: A procedure was done similarly to Example 1 only using the compound β-alanine, N-(acridin-9-yl), 2-[bis(2-chloroethyl)amino]ethyl ester (Compound 1, ChemSyn, Harrisonville, Mo., see U.S. Pat. No. 6,093,725). The Listeria strains used were DP-L4056 and DP-L4017. Compound 1 (1 mM in acidic BBS (blood bank saline), 135 μl of 1.48 M H3PO4 per 100 mL BBS) was added to 5 mL of bacteria at 1×10^8 CFU/mL to concentrations of 0, 0.5, 1, 2, 5, and 10 μM and the samples incubated for 2 hours at room temperature. After the incubation, the bacterial titer and antigen presentation was assessed as per Example 1.

With `O=C(CCNc1c2ccccc2nc2ccccc12)OCCN(CCCl)CCCl` [compound 1, β-alanine, N-(acridin-9-yl), 2-[bis(2-chloroethyl)amino]ethyl ester] as the compound, how does the “attenuation of proliferation with sufficient antigen presentation” value read?
Its value is “effective”.
